Assay results: patent US7385026B1, “Modified ghrelin polypeptides” (priority 1999, dated 2008)
Several values for one entry are separate records, joined by “and”; a condition that tells them apart may be missing. Equal values may be shown once. Read-outs that look alike come from different tables or passages of the source. Square brackets hold non-standard residues; d marks the D form. Peptide text beside a SMILES is read from it. d2Nal = N[C@H](Cc1ccc2ccccc2c1)C(=O)O; Aib = CC(C)(N)C(=O)O

Experiments:
IGS-SD strain rats = test: GH-releasing activity of long-chain ghrelin derivatives in rat (plasma GH 15 min after i.v.); format: in vivo; conditions: for GH level in plasma in 15 min. after administration, M ± S.D.: n=3; for GH level in plasma in 15 min. after administration, individual rats (Rat 1-3): rats under Nembutal; for GH-releasing activity (in words): i.v., plasma GH at 15 minutes
Protocol: Fifteen minutes after administration, plasma was collected, and the concentration of GH in plasma was measured by radioimmunoassay (Biotrak/Amersham). Separately, 0.2% bovine serum albumin (BSA)-physiological saline, 6 nmol/kg rGhrelin and hGhrelin, or 80 nmol/kg Ipamorelin (Compound 80) was administered into other rats as the control, respectively, and the concentrations of GH in plasma in 15 minutes after administration were compared (for each sample, n=3).

rat GHS-receptor (GHR-R) = target: T1, rat GHS-receptor (GHR-R) (Rattus norvegicus, UniProt O08725); test: Ca-releasing activity (increase in intracellular calcium) in CHO-GHSR62 cells, FLIPR; format: cell-based
T1 construct: A full-length cDNA for rat GHR-R was obtained by RT-PCR; expressed in transfected cells
T1 sequence (O08725 whole entry): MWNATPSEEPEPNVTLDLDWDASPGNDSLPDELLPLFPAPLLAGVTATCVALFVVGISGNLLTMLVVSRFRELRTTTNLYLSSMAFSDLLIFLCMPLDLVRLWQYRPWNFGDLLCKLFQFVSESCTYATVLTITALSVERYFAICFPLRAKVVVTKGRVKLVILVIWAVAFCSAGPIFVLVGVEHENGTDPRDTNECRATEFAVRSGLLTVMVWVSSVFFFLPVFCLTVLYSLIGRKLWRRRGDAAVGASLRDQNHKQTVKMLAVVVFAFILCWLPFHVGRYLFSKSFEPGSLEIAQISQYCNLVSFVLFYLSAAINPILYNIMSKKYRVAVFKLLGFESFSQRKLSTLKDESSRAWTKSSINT
Summary of the method: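 CHO cells stably expressing full-length rat GHS-R (CHO-GHSR62) were cultured 12–15 h, loaded with 4 μM Fluo4 for 1 h and washed with Hank's BSS containing 20 mM Hepes and 2.5 mM probenecid. Ca-releasing activity of ghrelin peptides, fragments or derivatives was read by FLIPR as the fluorescence change after sample addition.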

Wister male rats = test: Cell growth: 3H-thymidine incorporation into bone marrow, duodenum, jejunum; format: in vivo, rat; conditions: 20 μg/kg i.v., 18 hours after administration
Protocol: To examine the action of administered ghrelin on promotion of cell growth, the f ollowing experiment was conducted. Twenty μg/kg of rat ghrelin or thioether-type rat ghrelin (Compound 18 [Cys^3(octyl)]-hghrelin) was administered into tail veins of Wister male rats (7.5-week-old) respectively. Seventeen hours after administration, ^3H-thymidine was administered into tail veins, and 1 hour thereafter, duodenum, jejunum and bone marrow were excised. The incorporation of […] to DNA fractions of these tissues was measured in order to examine the cell growth-promoting action of ghrelin and ghrelin derivatives. The tissues were cut thin and homogenized using a Polytron homogenizer, and after centrifugation, the supernatant was precipitated with trichloroacetic acid to give a DNA fraction. The radioactivity of the DNA fraction was measured by a liquid scintillation counter.
Numerical values show the ratio (%) of incorporation of radioisotope relative to the mean (in triplicate) of the comparative example (i.e. the group given physiological saline).

Wistar strain male rats = test: Change of GH level in plasma over time after i.v. administration; format: in vivo, rat; conditions: 5 μg/head i.v.; for GH level in plasma, individual rats (Rat 1-5): listed as [Cys^3(Octyl)]-rat ghrelin
Protocol: Physiological saline as the control and rat ghrelin (5 μg/head) were also administered and compared with Compound 18.

[1] = system: amino-terminal antibody (anti-[C-Cys]-rat ghrelin [1-11] antigen); test: Radioimmunoassay: inhibition of binding of labeled rat ghrelin to amino-terminal antibody; design: species or system rabbit
[2] = CHO-GHSR62 cells (CHO cells expressing rat GHS receptor), FLIPR, read-out: Ca-releasing activity EC50

CCCCCCCCSC[C@H](NC(=O)[C@H](CO)NC(=O)CN)C(=O)N[C@@H](Cc1ccccc1)C(=O)N[C@@H](CC(C)C)C(=O)N[C@@H](CO)C(=O)N1CCC[C@H]1C(=O)N[C@@H](CCC(=O)O)C(=O)N[C@@H](Cc1c[nH]cn1)C(=O)N[C@@H](CCC(N)=O)C(=O)N[C@@H](CCCCN)C(=O)N[C@@H](C)C(=O)N[C@@H](CCC(N)=O)C(=O)N[C@@H](CCC(N)=O)C(=O)N[C@@H](CCCNC(=N)N)C(=O)N[C@@H](CCCCN)C(=O)N[C@@H](CCC(=O)O)C(=O)N[C@@H](CO)C(=O)N[C@@H](CCCCN)C(=O)N[C@@H](CCCCN)C(=O)N1CCC[C@H]1C(=O)N1CCC[C@H]1C(=O)N[C@@H](C)C(=O)N[C@@H](CCCCN)C(=O)N[C@@H](CC(C)C)C(=O)N[C@@H](CCC(N)=O)C(=O)N1CCC[C@H]1C(=O)N[C@@H](CCCNC(=N)N)C(=O)O [Compound 18, [Cys^3(Octyl)]-rGhrelin]
GH level in plasma in 15 min. after administration, M ± S.D. (IGS-SD strain rats; dose 30 nmol/kg i.v.): 2494 ± 253 ng/mL | GH level in plasma in 15 min. after administration, individual rats (Rat 1-3) (IGS-SD strain rats; dose 30 nmol/kg i.v.): 2786 ng/mL and 2342 ng/mL and 2354 ng/mL | GH-releasing activity (in words) (IGS-SD strain rats): strong GH-releasing activity | EC50 (rat GHS-receptor (GHR-R); [2]): 5.4 nM | incorporation of 3H-thymidine relative to the mean of the physiological saline group, Bone marrow (in tissues) (Wister male rats): 144.5% | incorporation of 3H-thymidine relative to the mean of the physiological saline group, Duodenum (in DNA fraction) (Wister male rats): 114.0% | incorporation of 3H-thymidine relative to the mean of the physiological saline group, Jejunum (in DNA fraction) (Wister male rats): 151.0% | GH level in plasma, Mean ± S.D. (Wistar strain male rats; time 0 min): 120 ± 146 ng/mL | GH level in plasma, individual rats (Rat 1-5) (Wistar strain male rats; time 0 min): 33 ng/mL and 32 ng/mL and 377 ng/mL and 101 ng/mL and 59 ng/mL | GH level in plasma, Mean ± S.D. (Wistar strain male rats; time 5 min): 450 ± 133 ng/mL | GH level in plasma, individual rats (Rat 1-5) (Wistar strain male rats; time 5 min): 530 ng/mL and 613 ng/mL and 338 ng/mL and 294 ng/mL and 476 ng/mL | GH level in plasma, Mean ± S.D. (Wistar strain male rats; time 10 min): 783 ± 324 ng/mL | GH level in plasma, individual rats (Rat 1-5) (Wistar strain male rats; time 10 min): 959 ng/mL and 1060 ng/mL and 687 ng/mL and 258 ng/mL and 949 ng/mL | GH level in plasma, Mean ± S.D. (Wistar strain male rats; time 15 min): 1093 ± 506 ng/mL | GH level in plasma, individual rats (Rat 1-5) (Wistar strain male rats; time 15 min): 1451 ng/mL and 1561 ng/mL and 927 ng/mL and 300 ng/mL and 1229 ng/mL | GH level in plasma, Mean ± S.D. (Wistar strain male rats; time 20 min): 1067 ± 445 ng/mL | GH level in plasma, individual rats (Rat 1-5) (Wistar strain male rats; time 20 min): 1299 ng/mL and 1359 ng/mL and 900 ng/mL and 358 ng/mL and 1417 ng/mL | GH level in plasma, Mean ± S.D. (Wistar strain male rats; time 30 min): 589 ± 229 ng/mL | GH level in plasma, individual rats (Rat 1-5) (Wistar strain male rats; time 30 min): 800 ng/mL and 726 ng/mL and 469 ng/mL and 245 ng/mL and 704 ng/mL | GH level in plasma, Mean ± S.D. (Wistar strain male rats; time 60 min): 132 ± 53 ng/mL | GH level in plasma, individual rats (Rat 1-5) (Wistar strain male rats; time 60 min): 220 ng/mL and 122 ng/mL and 98 ng/mL and 86 ng/mL and 133 ng/mL

CCCCCCCCOC[C@H](NC(=O)[C@H](CO)NC(=O)CN)C(=O)N[C@@H](Cc1ccccc1)C(=O)N[C@@H](CC(C)C)C(=O)N[C@@H](CO)C(=O)N1CCC[C@H]1C(=O)N[C@@H](CCC(=O)O)C(=O)N[C@@H](Cc1c[nH]cn1)C(=O)N[C@@H](CCC(N)=O)C(=O)N[C@@H](CCCNC(=N)N)C(=O)N[C@H](C(=O)N[C@@H](CCC(N)=O)C(=O)N[C@@H](CCC(N)=O)C(=O)N[C@@H](CCCNC(=N)N)C(=O)N[C@@H](CCCCN)C(=O)N[C@@H](CCC(=O)O)C(=O)N[C@@H](CO)C(=O)N[C@@H](CCCCN)C(=O)N[C@@H](CCCCN)C(=O)N1CCC[C@H]1C(=O)N1CCC[C@H]1C(=O)N[C@@H](C)C(=O)N[C@@H](CCCCN)C(=O)N[C@@H](CC(C)C)C(=O)N[C@@H](CCC(N)=O)C(=O)N1CCC[C@H]1C(=O)N[C@@H](CCCNC(=N)N)C(=O)O)C(C)C [Compound 17, [Ser^3(Octyl)]-hGhrelin]
GH level in plasma in 15 min. after administration, M ± S.D. (IGS-SD strain rats; dose 18 nmol/kg i.v.): 1657 ± 75 ng/mL | GH level in plasma in 15 min. after administration, individual rats (Rat 1-3) (IGS-SD strain rats; dose 18 nmol/kg i.v.): 1626 ng/mL and 1602 ng/mL and 1743 ng/mL | GH-releasing activity (in words) (IGS-SD strain rats): strong GH-releasing activity | EC50 (rat GHS-receptor (GHR-R); [2]): 1.2 nM

CCCCCCCCCC(=O)OC[C@H](NC(=O)[C@H](CO)NC(=O)CN)C(=O)N[C@@H](Cc1ccccc1)C(=O)N[C@@H](CC(C)C)C(=O)N[C@@H](CO)C(=O)N1CCC[C@H]1C(=O)N[C@@H](CCC(=O)O)C(=O)N[C@@H](Cc1c[nH]cn1)C(=O)N[C@@H](CCC(N)=O)C(=O)N[C@@H](CCCCN)C(=O)N[C@@H](C)C(=O)N[C@@H](CCC(N)=O)C(=O)N[C@@H](CCC(N)=O)C(=O)N[C@@H](CCCNC(=N)N)C(=O)N[C@@H](CCCCN)C(=O)N[C@@H](CCC(=O)O)C(=O)N[C@@H](CO)C(=O)N[C@@H](CCCCN)C(=O)N[C@@H](CCCCN)C(=O)N1CCC[C@H]1C(=O)N1CCC[C@H]1C(=O)N[C@@H](C)C(=O)N[C@@H](CCCCN)C(=O)N[C@@H](CC(C)C)C(=O)N[C@@H](CCC(N)=O)C(=O)N1CCC[C@H]1C(=O)N[C@@H](CCCNC(=N)N)C(=O)O [Compound 12, [Ser^3(Decanoyl)]-rGhrelin]
EC50 (rat GHS-receptor (GHR-R); [2]): 1.7 nM | EC50 (rat GHS-receptor (GHR-R); Table 3, Example 9: protease fragments or synthetic peptides, CHO-GHSR62 cells, read-out: Ca-releasing activity (EC50)): 2.6 nM | cross-reactivity with the amino-terminal antibody [1]: 20%

CC(C)C[C@H](NC(=O)[C@H](CCCCN)NC(=O)[C@H](C)NC(=O)[C@@H]1CCCN1C(=O)[C@@H]1CCCN1C(=O)[C@H](CCCCN)NC(=O)[C@H](CCCCN)NC(=O)[C@H](CO)NC(=O)[C@H](CCC(=O)O)NC(=O)[C@H](CCCCN)NC(=O)[C@H](CCCNC(=N)N)NC(=O)[C@H](CCC(N)=O)NC(=O)[C@H](CCC(N)=O)NC(=O)[C@@H](NC(=O)[C@H](CCCNC(=N)N)NC(=O)[C@H](CCC(N)=O)NC(=O)[C@H](Cc1c[nH]cn1)NC(=O)[C@H](CCC(=O)O)NC(=O)[C@@H]1CCCN1C(=O)[C@H](CO)NC(=O)[C@H](CC(C)C)NC(=O)[C@H](Cc1ccccc1)NC(=O)[C@H](COC(=O)CCc1ccccc1)NC(=O)[C@H](CO)NC(=O)CN)C(C)C)C(=O)N[C@@H](CCC(N)=O)C(=O)N1CCC[C@H]1C(=O)N[C@@H](CCCNC(=N)N)C(=O)O [Compound 15, [Ser^3(3-Phenylpropionyl)]-hGhrelin]
GH level in plasma in 15 min. after administration, M ± S.D. (IGS-SD strain rats; dose 18 nmol/kg i.v.): 1926 ± 299 ng/mL | GH level in plasma in 15 min. after administration, individual rats (Rat 1-3) (IGS-SD strain rats; dose 18 nmol/kg i.v., listed as [Ser^3(Phenylpropionyl)]-hGhrelin): 2119 ng/mL and 2078 ng/mL and 1581 ng/mL | GH-releasing activity (in words) (IGS-SD strain rats): strong GH-releasing activity | EC50 (rat GHS-receptor (GHR-R); [2]): 1.4 nM

CCCCCC(=O)OC[C@H](NC(=O)[C@H](CO)NC(=O)CN)C(=O)N[C@@H](Cc1ccccc1)C(=O)N[C@@H](CC(C)C)C(=O)N[C@@H](CO)C(=O)N1CCC[C@H]1C(=O)N[C@@H](CCC(=O)O)C(=O)N[C@@H](Cc1c[nH]cn1)C(=O)N[C@@H](CCC(N)=O)C(=O)N[C@@H](CCCCN)C(=O)N[C@@H](C)C(=O)N[C@@H](CCC(N)=O)C(=O)N[C@@H](CCC(N)=O)C(=O)N[C@@H](CCCNC(=N)N)C(=O)N[C@@H](CCCCN)C(=O)N[C@@H](CCC(=O)O)C(=O)N[C@@H](CO)C(=O)N[C@@H](CCCCN)C(=O)N[C@@H](CCCCN)C(=O)N1CCC[C@H]1C(=O)N1CCC[C@H]1C(=O)N[C@@H](C)C(=O)N[C@@H](CCCCN)C(=O)N[C@@H](CC(C)C)C(=O)N[C@@H](CCC(N)=O)C(=O)N1CCC[C@H]1C(=O)N[C@@H](CCCNC(=N)N)C(=O)O [Compound 11, [Ser^3(Hexanoyl)]-rGhrelin]
EC50 (rat GHS-receptor (GHR-R); [2]): 16 nM | cross-reactivity with the amino-terminal antibody [1]: 0.3%

CC(C)(N)C(=O)N[C@@H](Cc1c[nH]cn1)C(=O)N[C@H](Cc1ccc2ccccc2c1)C(=O)N[C@H](Cc1ccccc1)C(=O)N[C@@H](CCCCN)C(N)=O [Compound 80, [Aib^1, His^2, ^DNal^3, ^DPhe^4, Lys^5]-Ghrelin (1-5)-amide, reference compound] (H-[Aib]H[d2Nal][dF]K-NH2)
GH level in plasma in 15 min. after administration, M ± S.D. (IGS-SD strain rats; dose 80 nmol/kg i.v.): 607 ± 503 ng/mL | GH level in plasma in 15 min. after administration, individual rats (Rat 1-3) (IGS-SD strain rats; dose 80 nmol/kg i.v., listed as Ipamorelin): 377 ng/mL and 260 ng/mL and 1184 ng/mL | EC50 (rat GHS-receptor (GHR-R); [2]): 2.5 nM
